# Reference: patent publication US20160295854A1, “COMPOSITION AND METHOD FOR EX-VIVO IMMUNOMODULATION AND/OR PRESERVATION OF ORGANS, METHODS AND USE” (UNIAO BRASILEIRA DE EDUCACAO E ASSISTENCIA , MANTENEDORA DA …, priority 2014, published 2016)
# Columns and labels:
# STAT3 = assay: p-STAT3 intracellular marking in BMDCs; assay type: cell-based, mice (Mus musculus); conditions: 30 μg/ml, 45 minutes after the stimulus
# Procedure: As positive control, the cells were stimulated with […] of phorbol myristate acetate (PMA) for 30 minutes. After the stimuli in the periods mentioned, the cells were fixed with Cytofix Buffer (BD Biosciences) for 10 minutes at 37° C. and permeated with Phosflow Perm Buffer III (BD Biosciences) for 30 minutes on ice. After such procedures, the cells were marked for p-ERK1/2 and p-STAT3.
# For analyzing the recipients T cells, the cells were marked for CD4 (GK1.5), CD8a (53-6.7), Foxp3 (MF23), Ki67 (B56) achieved from BD Biosciences. […] The levels of phosphorylated ERK and STAT3 were determined using antibodies for p-ERK1/2 and p-STAT3 (BD Biosciences) in BMDCs previously fixed and permeablized. The cells were subsequently analyzed in the flow cytometer FACSCanto II (BD Biosciences) with the BD FACSDiva (BD Biosciences) program. The data achieved were analyzed with the Flowjo program (version 7.6.5, Tree Star).
# The p-ERK expression was measured by flow cytometry. […] The p-STAT3 expression was measured by flow cytometry. […] After that, the IL-10 mRNA levels were measured by Real-time PCR and the concentration of this cytokine by flow cytometry, using the kit CBA Mouse Inflammation. […] After that, the MARCH-I mRNA levels were analyzed by Real-time PCR. […]
# MHC II = MHC II expression in LPS-activated BMDCs; assay type: cell-based, mice (Mus musculus); conditions: BMDCs treated or not with LPS 24 h, then treated or not with Hsp70 for additional 24 h
# [1] = system: CD4+ and CD8+ T cells in recipient DLN; assay: Recipient responses in DLN (cell count, Ki67 proliferation, Tregs); assay type: in vivo, mice (Mus musculus)
# Procedure: Cells of the donor mice (I-A^b+ or GFP+) were detected in the axillary lymph nodes of the recipients, 24 h or 96 h after the transplantation by flow cytometry. The transplanted mice were sacrificed, the axillary lymph nodes were removed and macerated in a nylon screen with a mean that had D Collagenase (Roche®). We achieved a cell suspension that had the cells in contact with Tripan blue and analyzed by flow cytometry.
# For analyzing the recipients T cells, the cells were marked for CD4 (GK1.5), CD8a (53-6.7), Foxp3 (MF23), Ki67 (B56) achieved from BD Biosciences. The specific transcription factor marking of Tregs Foxp3 was performed using the kit Mouse Foxp3 Buffer Set (BD Biosciences), according to the manufacturer instructions. The levels of phosphorylated ERK and STAT3 were determined using antibodies for p-ERK1/2 and p-STAT3 (BD Biosciences) in BMDCs previously fixed and permeablized. The cells were subsequently analyzed in the flow cytometer FACSCanto II (BD Biosciences) with the BD FACSDiva (BD Biosciences) program. The data achieved were analyzed with the Flowjo program (version 7.6.5, Tree Star).
# When analyzed the median responses in the Recipients' DLNs, it was noted, for inventors surprise, which animals that received grafts treated with OVA presented organs in a greater size when compared with animals that received grafts treated with Hsp70.
# For analyzing this hypothesis, the proliferation of these cells was analyzed by marking with Ki67 in the transplanted animals DLN. Ki67 is a molecule having a role in the cellular cycle and is expressed by any organism cell that is proliferating. […] An increase in the number of regulating T cells (Tregs) may reduce the alloreactive T cells proliferation in the recipient DLN, delaying the rejection to grafts. […] These findings are in accordance with the observation that immature DCs administration in human leads to an inhibition of the CD8+ T cells effector functions.
# FIG. 7. […]
# CD86 = assay type: cell-based, mice (Mus musculus); conditions: BMDCs treated or not with LPS 24 h, then treated or not with Hsp70 for additional 24 h
# [2] = system: donor cells (I-A^b+ or GFP+) in recipient DLN; assay: Donor migratory cells screened in the recipient DLN by flow cytometry; assay type: in vivo, mice (Mus musculus)
# ERK = assay: p-ERK intracellular marking in BMDCs; assay type: cell-based, mice (Mus musculus)
substance,measurement,setting,value
"Hsp70: recombinant Mycobacterium tuberculosis Hsp70 (DnaK) produced in Escherichia coli BL21, LPS removed",STAT3 phosphorylation in BMDCs (FIG. 13 C),STAT3,induced the phosphorylation STAT3
same,percentage of CD11c+ I-Ab^hi cells (FIG. 4),MHC II,revert partially
same,total of cells of the Recipients' DLNs (FIG. 7 A),"[1]; days 1, 4, 7 and 10 after transplantation, vs OVA",lower absolute number of cells
same,"CD4+ and CD8+ T cells proliferation (Ki67) in recipient DLN (FIG. 7 B, C)",[1]; graft treated by immersion,reduction marked
same,Tregs in the recipient DLN (FIG. 7 D),[1]; graft treated by immersion,not detected a significant increase
same,percentage of CD11c+ CD86^hi cells (FIG. 5),CD86,revert partially
same,MHC II levels in DCs CD103+ migrating from the graft to the recipient DLN (FIG. 9 B),[2]; 24 h or 96 h after transplantation,significant reduction of MHC II levels
same,CD80 and CD86 levels of donor DCs (FIG. 6 C),"[2]; 24 h or 96 h after transplantation, vs OVA",reduced levels of CD80 and CD86
same,CCR7 expression in migratory donor DCs,"[2]; 24 hours after transplantation, vs OVA",upper levels of CCR7
same,CCR7 expression in migratory donor DCs,"[2]; four days after transplantation, vs OVA",did not differ
same,"MHC II expression in donors DCs in recipient DLN (FIG. 6 A, B)","[2]; graft treated by immersion, vs OVA",MHC II expression reduction
same,donor cells (I-A^b+ or GFP+) in the recipient DLN,"[2]; one and four days after transplantation, vs OVA",not noted any difference
same,p-ERK levels in BMDCs (FIG. 13 A),"ERK; 30 μg/ml, after 15 minutes of stimulus, WT",increase in the phosphor ERK levels
same,p-ERK levels in TLR2 KO BMDCs (FIG. 13 B),"ERK; TLR2 KO BMDCs, 15 minutes",increase was not noted
